pEC50: −log10 of the molar value. Activity calls are given as the source filed them. The rule behind the calls is not given here.
Tests used:
[1] = Cytotoxicity against human Huh7.5.1 cells; assay type: cell-based, Huh-7
[2] = system: Hepatitis C virus; experiment: Antiviral activity against HCV genotype 2a JFH-1 infected in human Huh7.5.1 cells after 2 hrs by luciferase assay; assay type: functional, organism-based, Hepacivirus hominis; conditions: JFH-1, Huh-7, 2 h
[3] = system: Hepatitis C virus; experiment: Ratio of RO8191 EC50 to compound EC50 for HCV genotype 2a JFH-1 infected in human Huh7.5.1 cells after 2 hrs by luciferase assay; assay type: functional, Hepacivirus hominis, Huh-7
[4] = system: Hepatitis C virus; experiment: Antiviral activity against HCV genotype 1b Con-1 infected in human HuH7 cells after 72 hrs by luciferase based replicon assay; assay type: functional, organism-based; conditions: Hepacivirus hominis; isolate Con1; Huh-7
[5] = Elimination half life in Wistar rat at 100 mg/kg, po; assay type: ADME, organism-based; conditions: in vivo, read-out: beta t1/2 (converted)
[6] = system: Hepatitis C virus; experiment: Antiviral activity against HCV genotype 2a JFH-1 in human Huh7.5.1 cells assessed as inhibition of post-attachment infection phase at 0.2 uM after 3 days by luciferase assay; assay type: functional, Hepacivirus hominis; conditions: JFH-1, Huh-7, 72 h
[7] = Tmax in Wistar rat at 100 mg/kg, po; assay type: ADME, organism-based; conditions: in vivo
[8] = Cmax in Wistar rat at 100 mg/kg, po; assay type: ADME, organism-based; parameters: dose 100 mg/kg, route oral; conditions: in vivo
[9] = system: Vero; experiment: Activation of ISRE reporter gene in African green monkey Vero cells at 4 to 100 uM after 24 hrs by luciferase assay; assay type: functional, cell-based; conditions: Chlorocebus sabaeus
[10] = AUC ( 0 to infinity) in Wistar rat at 100 mg/kg, po; assay type: ADME, organism-based; parameters: dose 100 mg/kg, route oral, time infinity; conditions: in vivo
[11] = system: Middle East respiratory syndrome-related coronavirus; experiment: Antiviral activity against MERS infected in human HuH7 cells; assay type: functional, cell-based; conditions: Huh-7
[12] = system: Human immunodeficiency virus; experiment: Antiviral activity against HIV infected in human Ghost cells; assay type: functional, organism-based; conditions: Human immunodeficiency virus 1, Ghost
[13] = system: Hepatitis C virus; experiment: Antiviral activity against HCV genotype 2a JFH-1 in human Huh7.5.1 cells assessed as inhibition of viral attachment to heparan sulfate proteoglycans at 0.2 uM at 4 degC by luciferase assay; assay type: functional, organism-based; conditions: Hepacivirus hominis, Huh-7
[14] = Cytotoxicity against human HepAD38 cells; assay type: cell-based
[15] = Cytotoxicity against human RD cells; assay type: cell-based
[16] = system: Huh-7; experiment: Activation of ISRE reporter gene in human HuH7 cells at 2 to 50 uM after 24 hrs by luciferase assay; assay type: functional, cell-based
[17] = system: HepG2; experiment: Activation of ISRE reporter gene in human HepG2 cells at 2 to 50 uM after 24 hrs by luciferase assay; assay type: functional, cell-based
[18] = Cytotoxicity against human GHOST cells; assay type: cell-based
[19] = system: Huh-7; experiment: Activation of ISRE reporter gene in human Huh7.5.1 cells at 2 to 50 uM after 24 hrs by luciferase assay; assay type: functional, cell-based
[20] = system: Hepatitis C virus; experiment: Antiviral activity against HCV genotype 2a JFH-1 in human Huh7.5.1 cells assessed as reduction of viral entry up to 3 hrs by luciferase assay; assay type: functional, organism-based; conditions: Hepacivirus hominis, Huh-7
[21] = Cytotoxicity against human HuH7 cells; assay type: cell-based, Huh-7
[22] = AUC ( 0 to 24 hrs) in Wistar rat at 100 mg/kg, po; assay type: ADME, organism-based; parameters: time < 24 hr, dose 100 mg/kg, route oral; conditions: in vivo
[23] = system: Enterovirus A71; experiment: Antiviral activity against EV71 infected in human RD cells; assay type: functional, organism-based; conditions: Enterovirus A
[24] = system: Hepatitis B virus; experiment: Antiviral activity against HBV infected in human HepAD38 cells; assay type: functional, organism-based
[25] = system: Hepatitis C virus; experiment: Antiviral activity against HCV genotype 2a JFH-1 in human Huh7.5.1 cells assessed as inhibition of viral attachment to heparan sulfate proteoglycans at 10 nM at 4 degC by luciferase assay; assay type: functional, organism-based; conditions: Hepacivirus hominis, Huh-7
[26] = system: Hepatitis C virus; experiment: Antiviral activity against HCV; assay type: functional, organism-based, Hepacivirus hominis

CNCCN(C)C(=O)c1cn2c(ccc3c(C(F)(F)F)cc(C(F)(F)F)nc32)n1
CC50 [1]: > 25 µM | pEC50 [2]: 7.70 | Ratio EC50 [3]: 5 | Activity [4]: inactive

CN1CCN(C(=O)c2cn3c(ccc4c(C(F)(F)F)cc(C(F)(F)F)nc43)n2)CC1
CC50 [1]: > 25 µM | pEC50 [2]: 6.80 | Activity [4]: inactive

NCCCCNC(=O)c1cn2c(ccc3c(C(F)(F)F)cc(C(F)(F)F)nc32)n1
CC50 [1]: > 25 µM | pEC50 [2]: 5.95

CN(C)CCNC(=O)c1cn2c(ccc3c(C(F)(F)F)cc(C(F)(F)F)nc32)n1
CC50 [1]: > 25 µM | pEC50 [2]: 7.16 | Activity [4]: inactive

Nc1ccc(NC(=O)c2cn3c(ccc4c(C(F)(F)F)cc(C(F)(F)F)nc43)n2)cc1
CC50 [1]: > 25 µM | pEC50 [2]: < 4.70

CC1CN(C(=O)c2cn3c(ccc4c(C(F)(F)F)cc(C(F)(F)F)nc43)n2)CCN1 (centres undefined)
CC50 [1]: > 25 µM | pEC50 [2]: 7.17 | Ratio EC50 [3]: 5 | Activity [4]: inactive

NCCNC(=O)c1cn2c(ccc3c(C(F)(F)F)cc(C(F)(F)F)nc32)n1
half-life [5]: 2.93 h | inhibition at 0.2 µM [6]: 90% | CC50 [1]: > 25 µM | Tmax [7]: 2.17 h | Cmax [8]: 2050 nM | Activity [9]: inactive | pEC50 [2]: 7.77 | AUC(0-inf) [10]: 19.1 µM·h | pEC50 [11]: < 4.70 | pEC50 [12]: < 4.70 | inhibition [13]: Active | CC50 [14]: > 20 µM | Ratio EC50 [3]: 5 | CC50 [15]: > 20 µM | Activity [16]: inactive | Activity [17]: inactive | CC50 [18]: > 20 µM | Activity [19]: inactive | inhibition [20]: Active | Activity [4]: inactive | CC50 [21]: > 20 µM | AUC(0-t) at 24 h [22]: 19 µM·h | pEC50 [23]: < 4.70 | pEC50 [24]: < 4.70

COC(=O)C1CCN(C(=O)c2cn3c(ccc4c(C(F)(F)F)cc(C(F)(F)F)nc43)n2)CC1
CC50 [1]: > 25 µM | pEC50 [2]: 4.90

O=C(c1cn2c(ccc3c(C(F)(F)F)cc(C(F)(F)F)nc32)n1)N1CCNCC1
CC50 [1]: > 25 µM | pEC50 [2]: 7.34 | Ratio EC50 [3]: 5 | Activity [4]: inactive

Nc1ccccc1NC(=O)c1cn2c(ccc3c(C(F)(F)F)cc(C(F)(F)F)nc32)n1
CC50 [1]: > 25 µM | pEC50 [2]: < 4.70

O=C(c1cn2c(ccc3c(C(F)(F)F)cc(C(F)(F)F)nc32)n1)N1CCC(O)CC1
CC50 [1]: > 25 µM | pEC50 [2]: < 4.70

CO/C1=C\C(C)=C\[C@@H](C)[C@@H](O)[C@@H](C)C/C(C)=C/C=C/[C@H](OC)[C@@H]([C@@H](C)[C@@H](O)[C@H](C)[C@@]2(O)C[C@@H](O)[C@H](C)[C@@H](C(C)C)O2)OC1=O
inhibition [25]: inactive | inhibition [20]: Active

Nc1cccc(NC(=O)c2cn3c(ccc4c(C(F)(F)F)cc(C(F)(F)F)nc43)n2)c1
CC50 [1]: > 25 µM | pEC50 [2]: < 4.70

COC(=O)CN1CCN(C(=O)c2cn3c(ccc4c(C(F)(F)F)cc(C(F)(F)F)nc43)n2)CC1
CC50 [1]: > 25 µM | pEC50 [2]: 4.88

NCCCNC(=O)c1cn2c(ccc3c(C(F)(F)F)cc(C(F)(F)F)nc32)n1
CC50 [1]: > 25 µM | pEC50 [2]: 5.89

COC(=O)C1CCCN(C(=O)c2cn3c(ccc4c(C(F)(F)F)cc(C(F)(F)F)nc43)n2)C1 (centres undefined)
CC50 [1]: > 25 µM | pEC50 [2]: 5.60

FC(F)(F)c1cc(C(F)(F)F)c2ccc3nc(-c4nnco4)cn3c2n1
Activity [9]: Active | Activity [16]: Active | Activity [17]: Active | Activity [19]: Active | Activity [4]: Active | pEC50 [26]: 6.69

NC1CCCCC1NC(=O)c1cn2c(ccc3c(C(F)(F)F)cc(C(F)(F)F)nc32)n1 (centres undefined)
CC50 [1]: > 25 µM | pEC50 [2]: 7.32 | Ratio EC50 [3]: 5 | Activity [4]: inactive

CCOC(=O)[C@@H](CCCCN)NC(=O)c1cn2c(ccc3c(C(F)(F)F)cc(C(F)(F)F)nc32)n1
CC50 [1]: > 25 µM | pEC50 [2]: 6.85

O=C(c1cn2c(ccc3c(C(F)(F)F)cc(C(F)(F)F)nc32)n1)N1CCC(CO)CC1
CC50 [1]: > 25 µM | pEC50 [2]: < 4.70

NC1CCN(C(=O)c2cn3c(ccc4c(C(F)(F)F)cc(C(F)(F)F)nc43)n2)C1 (centres undefined)
CC50 [1]: > 25 µM | pEC50 [2]: 7.68 | Ratio EC50 [3]: 5 | Activity [4]: inactive

O=C(c1cn2c(ccc3c(C(F)(F)F)cc(C(F)(F)F)nc32)n1)N1CCCC1CO (centres undefined)
CC50 [1]: > 25 µM | pEC50 [2]: 4.78

O=C(c1cn2c(ccc3c(C(F)(F)F)cc(C(F)(F)F)nc32)n1)N1CCOCC1
CC50 [1]: > 25 µM | pEC50 [2]: < 4.70

NC1CCN(C(=O)c2cn3c(ccc4c(C(F)(F)F)cc(C(F)(F)F)nc43)n2)CC1
CC50 [1]: > 25 µM | pEC50 [2]: 6.99 | Activity [4]: inactive

O=C1CN(C(=O)c2cn3c(ccc4c(C(F)(F)F)cc(C(F)(F)F)nc43)n2)CCN1
CC50 [1]: > 25 µM | pEC50 [2]: 4.90

— ChEMBL document CHEMBL3632623, “Discovery of Imidazo[1,2-α][1,8]naphthyridine Derivatives as Potential HCV Entry Inhibitor” (ACS Med Chem Lett, 2015)
